# Columns and labels:
# aflatoxines production = assay: microbe, parasite or virus in culture; type: cell-based, Aspergillus parasiticus; details: 50 μM
# [1] = logP by HPLC on reversed-phase column (C 18), EEC Directive 79/831 Annex V.A8; type: physicochemical
# Description: In table 1, the logP values were determined in accordance with EEC Directive 79/831 Annex V.A8 by HPLC (High Performance Liquid Chromatography) on a reversed-phase column (C 18), using the method described below: Temperature: 40° C.; […]
# Fusarium graminearum = assay: microbe, parasite or virus in culture; type: cell-based; details: 50 μM
# Alternaria solani = assay: In vivo preventive test on Alternaria solani (tomato); details: 500 ppm of active ingredient, evaluated 7 days after inoculation
# Source text: One day after this treatment, the plants are inoculated with an aqueous spore suspension of Alternaria solani.
# Pyrenophora teres = assay: In vivo preventive test on Pyrenophora teres (barley); details: 500 ppm of active ingredient, evaluated 7-9 days after inoculation
# Source text: One day after this treatment, the plants are inoculated with an aqueous spore suspension of Pyrenophora teres.
SMILES,% Inhibition of Aflatoxin at 50 μM (aflatoxines production) [%],logP [1],% Inhibition of fungal growth at 50 μM (Fusarium graminearum) [%],Efficacy (Alternaria solani) [%],Efficacy (Pyrenophora teres) [%]
Cn1nc(C(F)F)c(C(=O)NC[Si](C)(C)c2cccc(Cl)c2)c1Cl [Example 236],99,3.71,84,100,100
CN(CCc1ccccc1)C(=O)c1c(C(F)F)nn(C)c1F [Example 4],100,2.43,91,100,95
CC(CNC(=O)c1c(C(F)F)nn(C)c1Cl)c1cc(Cl)ccc1Cl (stereo not drawn) [Example 98],100,3.55,95,95,94
CC(CNC(=O)c1c(C(F)F)nn(C)c1Cl)c1ccc(Cl)cc1Cl (stereo not drawn) [Example 85],100,3.67,100,100,100
Cn1nc(C(F)F)c(C(=O)NCCc2ccc(Oc3ccccc3)cc2)c1F [Example 152],100,3.41,82,95,100
CC(CNC(=O)c1c(C(F)F)nn(C)c1Cl)c1cc(Cl)cc(Cl)c1 (stereo not drawn) [Example 112],100,3.73,83,95,100
CCC(CNC(=O)c1c(C(F)F)nn(C)c1F)c1ncc(C(F)(F)F)cc1Cl (stereo not drawn) [Example 192],100,3.52,100,100,100
CN(CCc1ccccc1C(F)(F)F)C(=O)c1c(C(F)F)nn(C)c1F [Example 123],100,3.00,100,100,95
Cn1nc(C(F)F)c(C(=O)NCCc2ccsc2Br)c1Cl [Example 165],99,2.82,81,90,95
CC(Cc1ccc(Oc2ccccc2)cc1)NC(=O)c1c(C(F)F)nn(C)c1Cl (stereo not drawn) [Example 154],99,3.83,80,100,100
Cc1ccsc1CCNC(=O)c1c(C(F)F)nn(C)c1Cl [Example 163],98,2.68,80,90,95
CC(CNC(=O)c1c(C(F)F)nn(C)c1F)c1ccc(C(F)(F)F)cc1 (stereo not drawn) [Example 127],100,3.25,100,100,100
Cn1nc(C(F)F)c(C(=O)NCCc2cc(Cl)cc(Cl)c2)c1F [Example 103],100,3.25,99,90,100
Cn1nc(C(F)F)c(C(=O)NCCc2cccc(Cl)c2)c1F [Example 47],100,2.75,100,100,100
CN(CCc1ccccc1Cl)C(=O)c1c(C(F)F)nn(C)c1Cl [Example 36],100,2.92,94,100,95
Cn1nc(C(F)F)c(C(=O)NCC(C)(C)c2cc(Cl)ccc2Cl)c1F [Example 100],99,3.68,85,95,94
CC(CNC(=O)c1c(C(F)F)nn(C)c1F)c1c(F)cccc1F (stereo not drawn) [Example 30],100,2.78,98,100,100
CN(CCc1ccc(C(C)(C)C)cc1)C(=O)c1c(C(F)F)nn(C)c1F [Example 138],100,3.78,80,100,95
CCN(CCc1ccc(Cl)cc1)C(=O)c1c(C(F)F)nn(C)c1F [Example 56],100,3.19,93,100,100
Cc1c(CCNC(=O)c2c(C(F)F)nn(C)c2Cl)sc2ccccc12 [Example 172],100,3.46,85,100,100
Cn1nc(C(F)F)c(C(=O)NCCc2ccccc2Cl)c1F [Example 32],100,2.69,99,95,100
Cn1nc(C(F)F)c(C(=O)N(C[Si](C)(C)c2ccsc2)C2CC2)c1Cl [Example 247],100,3.71,100,94,100
Cn1nc(C(F)F)c(C(=O)NCCc2ccccc2C(F)(F)F)c1F [Example 121],100,2.92,100,95,100
CN(CCc1cc(Cl)ccc1Cl)C(=O)c1c(C(F)F)nn(C)c1F [Example 94],100,3.17,100,100,100
Cc1cc(C)c(CCN(C)C(=O)c2c(C(F)F)nn(C)c2F)c(C)c1 [Example 135],100,3.48,96,95,95
Cn1nc(C(F)F)c(C(=O)NCCc2cc(Cl)ccc2Cl)c1F [Example 90],100,3.11,100,95,100
Cn1nc(C(F)F)c(C(=O)NCCc2cccc(Cl)c2)c1Cl [Example 49],100,2.92,91,100,94
CC(Cc1ccccc1F)N(C(=O)c1c(C(F)F)nn(C)c1Cl)C1CC1 (stereo not drawn) [Example 20],86,3.52,69,95,100
CC(c1ccccc1Cl)C(C)N(C(=O)c1c(C(F)F)nn(C)c1Cl)C1CC1 (stereo not drawn) [Example 42],100,4.08,84,80,100
CN(CCc1ccc(F)cc1)C(=O)c1c(C(F)F)nn(C)c1F [Example 22],100,2.50,100,100,100
